Test results taken from patent publication US20210330788A1, “USES OF ANTI-BCMA CHIMERIC ANTIGEN RECEPTORS” (CELGENE CORPORATION, priority 2018, published 2021).

Tested on: human multiple myeloma (RPMI-8226) tumors
Assay: Sub-cutaneous human multiple myeloma (RPMI-8226) tumor model in NSG mice (FIGS. 8A and 8B)
Assay type: in vivo, NOD scid gamma (NSG) mice
Conditions: ˜100mm^3 tumors; 10^7 CAR T cells or Bortezomib; two independent experiments
Procedure: Hyperactivation and increased apoptosis could negatively impact CAR T cell persistence in patients and ultimately clinical efficacy. The anti-tumor function of anti-BCMA02 CAR T cells and anti-BCMA10 CAR T cells was examined in a mouse tumor model. NOD-scid gamma (NSG) mice with ˜100mm^3 experimental sub-cutaneous human multiple myeloma (RPMI-8226) tumors were treated with 10^7 anti-BCMA02 CAR T cells, 10^7 anti-BCMA10 CAR T cells, or Bortezomib (VELCADE®). RPMI-8226 growth was monitored with calipers.

CC(C)C[C@H](NC(=O)[C@H](Cc1ccccc1)NC(=O)c1cnccn1)B(O)O [Bortezomib]
RPMI-8226 tumor growth (calipers): controlled tumor growth
